Measurements taken from ChEMBL document CHEMBL1201862, “PubChem BioAssay data set” (2004).
The source made the active and inactive calls.

What was measured:
[1] = target: Phospholipase D2 (Homo sapiens, UniProt O14939); experiment: cellular phospholipase D2 inhibition IC50 – cell-based, dose response (AID 602147); type: functional;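 also: cellular assay in HEK293 cells overexpressing GFP-tagged PLD2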
[2] = target: Phospholipase D1 (Homo sapiens, UniProt Q13393); experiment: cellular phospholipase D1 inhibition IC50 – cell-based, dose response (AID 602151); type: functional;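 also: cellular PLD1 assay in Calu-1 cells stimulated with PMA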
[3] = Fluorescence-based cell-based high throughput dose response assay for inhibitors of the interaction of nucleotide-binding oligomerization domain containing 2 (NOD2) and the receptor-interacting serine-threonine kinase 2 (RIPK2).; type: functional; settings: Homo sapiens
[4] = system: Jurkat; experiment: SAR Analysis of small molecule inhibitors of T-cell specific antigen receptor-induced NF-kB activation in a Jurkat cell line using a luminescence assay - Set 2. [Related pubchem assays (depositor defined):AID435003, AID435012, AID465]; type: functional, cell-based; settings: Homo sapiens
[5] = alpha-synuclein stem-loop luciferase translation blockers – H4 neuroglioma cells, luminescence, confirmation (AID 1988); type: functional, cell-based
[6] = target: Paired box protein Pax-8 (Homo sapiens, UniProt Q06710); experiment: PAX8 transcriptional activity inhibition in RMG-I – RMG-I cells, luciferase, cherry-pick, dose response (AID 687027); type: functional, cell-based;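 also: luciferase reporter driven by Pax8 target thyroperoxidase promoter measured by SteadyGlo luminescence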
[7] = loss of viability in HepG2 cells – cell-based, CellTiter-Glo, cherry-picked, cytotoxicity control for Shn3 inhibitor project, dose response (AID 624134); type: functional
[8] = Luminescence Cell-Based Dose Response HTS to Identify Inhibitors of 5'UTR Stem-Loop Driven Prion Protein mRNA Translation in H4 Neuroglioblastoma Cells. [Related pubchem assays: 1827 (Project Summary), 1813 (Primary HTS)]; type: functional
[9] = reduction of Shn3 3'UTR-driven luciferase in osteoblasts – cell-based, Clone20 osteoblasts, firefly luciferase, cherry-picked, dose response (AID 624132); type: functional;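 also: firefly luciferase luminescence from reporter carrying the Shn3 3'UTR in osteoblasts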
[10] = system: HEK293; experiment: HEK293T cell viability loss, resazurin readout – resazurin fluorescence, cytotoxicity control for NF-kB activator project, SAR follow-up (AID 493251); type: functional, cell-based; settings: Homo sapiens
[11] = luciferase reporter signal suppression in cells – H4 neuroglioma cells, luminescence, dose response (AID 1990); type: functional, cell-based
[12] = non-specific 3'UTR reporter inhibition in Clone20-Shn3RL – cell-based, Renilla luciferase, cherry-picked, counter-screen for Shn3 inhibitor project, dose response (AID 624133); type: functional
[13] = system: HEK293; experiment: SAR Analysis of small molecule inhibitors of T-cell specific antigen receptor-induced NF-kB activation in a HEK-293T cell line using a luminescence assay - Set 2. [Related pubchem assays (depositor defined):AID435003, AID435012, AID489026]; type: functional, cell-based; settings: Homo sapiens
[14] = target: CAAX prenyl protease 2 (Saccharomyces cerevisiae S288c, UniProt Q03530); type: biochemical
[15] = target: CAAX prenyl protease 2 (Homo sapiens, UniProt Q9Y256); experiment: inhibition of Ras-converting CAAX protease Rce1 – biochemical, yeast membranes, quenched-peptide fluorescence, cherry-pick, dose response (AID 588849)
[16] = system: HeLa; experiment: toxicity to human HeLa cells – cell-based, 48 h, plate reader, cherry-picks, cytotoxicity control, dose response (AID 504942); type: functional
[17] = target: Acyl-homoserine lactone acylase PvdQ (Pseudomonas aeruginosa (strain LESB58), UniProt Q9I194); experiment: PvdQ acylase enzyme activity blockers – biochemical, fluorescence, plate reader and imaging, cherry-picks, dose response (AID 493231)
[18] = Luminescence Cell-Based Dose Retest to Confirm Inhibitors of Cancer Stem Cells. [Related pubchem assays (depositor defined):AID2717, AID2721]; type: functional; settings: Homo sapiens
[19] = system: BJ; experiment: cells; type: functional, cell-based; settings: Homo sapiens
[20] = system: BJ; experiment: growth inhibition of engineered Ras-driven BJ cells – cell-based, alamar blue fluorescence, cherrypicked samples, dose response (AID 2631); type: functional; settings: Homo sapiens;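 also: confirmatory dose-response assay in RAS-dependent BJ fibroblasts engineered with TERT, LT and ST, with cytotoxicity read by fluorescence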
[21] = DRD fibroblast viability loss – cell-based, non-viral oncogenic, luminescence, dose response (AID 1934); type: functional; settings: Homo sapiens
[22] = HEK-293T viability loss after treatment – luminescence, T-cell screen hits, cytotoxicity control for TCR NF-kB inhibitor project, dose response (AID 489026); type: functional, cell-based;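 also: cells exposed to compound about 14 hours before the viability readout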
[23] = system: BJ; experiment: BJ-TERT-LT-ST fibroblast viability loss – cell-based, RAS-independent, luminescence, dose response (AID 1935); type: functional; settings: Homo sapiens;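 also: BJ fibroblasts immortalized with TERT plus LT and ST oncogenes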
[24] = system: BJ; experiment: BJ-TERT fibroblast viability loss – cell-based, RAS-independent, luminescence, dose response (AID 1933); type: functional; settings: Homo sapiens
[25] = PAX8-dependent cell viability loss – plate reader, dry powder, dose response (AID 743049); type: functional, cell-based
[26] = inhibitors acting on PAX2 in cells – cell-based, plate reader, dry powder samples, selectivity assay for PAX8 inhibitor project, dose response (AID 743048); type: functional;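 also: HEK293 cells carrying a WT1 promoter luciferase reporter driven by expressed Pax2; potency is for inhibition of Pax2 driven reporter signal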
[27] = Luminescence-based counterscreen assay for KLF5 inhibitors: dose response cell-based high throughput screening assay to identify cytotoxic compounds using the IEC-6 intestinal epithelial cell line. [Related pubchem assays: 1700 (Primary screen.), 1834 (Confirmation screen.), 1858 (Summary AID.), 1905 (Counterscreen.)]; type: functional
[28] = system: Jurkat; experiment: blockers of NF-kB activation in T cells – Jurkat, luciferase reporter, luminescence, B- and T-cell, dose response (AID 489004); type: functional, cell-based; settings: Homo sapiens;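 also: NF-kB luciferase reporter Jurkat cells stimulated with PMA plus ionomycin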
[29] = IGROV1 cell killing – plate reader, dry powder samples, PAX8 inhibitor project, dose response (AID 743043); type: functional, cell-based; settings: IGROV-1
[30] = Shn3 3'UTR reporter signal decrease – cell-based, Clone20 osteoblasts, firefly luciferase, cherry-pick, set 2, Schnurri-3 inhibitor project, dose response (AID 720490); type: functional;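 also: actives lower the luminescence signal as inhibitors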
[31] = target: T1, Heat shock factor protein 1 (Mus musculus, UniProt P38532); experiment: decrease of HSF1-responsive luciferase luminescence – cell-based, NIH3T3, dose retest, confirmation (AID 2382); type: functional;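 also: NIH3T3 fibroblasts with HSF1-driven luciferase reporter stressed by proteasome inhibitor MG132; luminescence from HSF1-driven luciferase expression after 8 hours of MG132 stress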
T1 sequence (P38532 whole entry): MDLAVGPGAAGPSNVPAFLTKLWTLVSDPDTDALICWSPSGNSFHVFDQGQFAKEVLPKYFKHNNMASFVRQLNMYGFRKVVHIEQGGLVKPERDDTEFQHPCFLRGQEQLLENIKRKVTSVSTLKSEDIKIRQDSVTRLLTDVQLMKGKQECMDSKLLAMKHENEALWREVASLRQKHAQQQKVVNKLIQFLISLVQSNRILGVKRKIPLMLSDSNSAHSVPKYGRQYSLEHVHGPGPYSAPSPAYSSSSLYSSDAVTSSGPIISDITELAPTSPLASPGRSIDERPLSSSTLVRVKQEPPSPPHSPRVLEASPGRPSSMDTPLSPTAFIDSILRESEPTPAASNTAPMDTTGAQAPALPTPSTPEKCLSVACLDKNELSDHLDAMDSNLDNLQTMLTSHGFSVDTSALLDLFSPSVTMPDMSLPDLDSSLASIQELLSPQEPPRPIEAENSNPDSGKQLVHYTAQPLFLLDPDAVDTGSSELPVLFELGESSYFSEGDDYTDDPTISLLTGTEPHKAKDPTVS

[32] = toxicity toward immortalized ovarian surface epithelium – cell-based, plate reader, dry powder samples, cytotoxicity control for PAX8 inhibitor project, dose response (AID 743045); type: functional
[33] = PAX5 cellular inhibition readout – cell-based, plate reader, dry powder samples, selectivity assay for PAX8 inhibitor project, dose response (AID 743047); type: functional;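 also: HEK293 cells carrying a Pax5 driven CD19 promoter luciferase reporter; potency of inhibitors that lower reporter luminescence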
[34] = HEK-293T viability loss, compound-treated – cell-based, uHTS hits, cytotoxicity control for B/T-cell NF-kB inhibitor project, dose response (AID 489019); type: functional;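 also: IC50 reflects cytotoxicity as loss of cell viability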
[35] = COV362 cell viability loss – plate reader, dry powder, SA12, cytotoxicity control for PAX8 inhibitor project, dose response (AID 743144); type: functional, cell-based
[36] = system: Escherichia coli; experiment: microbe, parasite or virus in culture

Paired box protein Pax-8, sequence (Q06710 whole entry): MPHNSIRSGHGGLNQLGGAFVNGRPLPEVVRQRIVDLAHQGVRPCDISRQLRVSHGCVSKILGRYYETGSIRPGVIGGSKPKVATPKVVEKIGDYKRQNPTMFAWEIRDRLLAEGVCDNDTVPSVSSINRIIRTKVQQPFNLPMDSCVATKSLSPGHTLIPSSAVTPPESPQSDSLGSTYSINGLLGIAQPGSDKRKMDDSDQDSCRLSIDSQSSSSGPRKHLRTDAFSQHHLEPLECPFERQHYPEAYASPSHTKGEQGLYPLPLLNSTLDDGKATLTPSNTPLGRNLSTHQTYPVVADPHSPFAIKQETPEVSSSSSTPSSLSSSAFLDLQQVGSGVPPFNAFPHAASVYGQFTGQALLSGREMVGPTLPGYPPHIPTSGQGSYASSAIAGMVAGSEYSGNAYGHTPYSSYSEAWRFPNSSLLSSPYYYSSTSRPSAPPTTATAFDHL
Acyl-homoserine lactone acylase PvdQ, sequence (Q9I194 24-193 limits assumed): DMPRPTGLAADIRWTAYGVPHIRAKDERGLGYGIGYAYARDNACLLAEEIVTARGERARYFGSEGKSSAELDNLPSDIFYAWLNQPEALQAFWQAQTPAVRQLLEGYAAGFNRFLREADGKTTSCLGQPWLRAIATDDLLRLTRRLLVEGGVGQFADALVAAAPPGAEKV
Acyl-homoserine lactone acylase PvdQ, sequence (Q9I194 217-762 limits assumed): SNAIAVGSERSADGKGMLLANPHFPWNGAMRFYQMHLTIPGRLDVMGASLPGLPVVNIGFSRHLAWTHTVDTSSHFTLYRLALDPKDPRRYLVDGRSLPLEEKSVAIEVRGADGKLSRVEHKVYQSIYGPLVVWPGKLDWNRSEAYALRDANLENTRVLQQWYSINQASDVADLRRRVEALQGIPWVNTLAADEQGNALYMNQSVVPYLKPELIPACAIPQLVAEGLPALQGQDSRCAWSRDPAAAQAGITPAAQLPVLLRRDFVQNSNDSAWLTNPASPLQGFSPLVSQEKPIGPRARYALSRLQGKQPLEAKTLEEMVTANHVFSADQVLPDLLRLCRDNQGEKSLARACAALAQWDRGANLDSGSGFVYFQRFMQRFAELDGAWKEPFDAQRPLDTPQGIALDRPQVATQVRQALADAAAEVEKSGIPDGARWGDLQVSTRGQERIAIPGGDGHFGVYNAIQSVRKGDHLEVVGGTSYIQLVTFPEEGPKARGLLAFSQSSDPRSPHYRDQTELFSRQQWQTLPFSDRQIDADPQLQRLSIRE
CAAX prenyl protease 2 (Saccharomyces cerevisiae S288c, UniProt Q03530), sequence (Q03530 whole entry): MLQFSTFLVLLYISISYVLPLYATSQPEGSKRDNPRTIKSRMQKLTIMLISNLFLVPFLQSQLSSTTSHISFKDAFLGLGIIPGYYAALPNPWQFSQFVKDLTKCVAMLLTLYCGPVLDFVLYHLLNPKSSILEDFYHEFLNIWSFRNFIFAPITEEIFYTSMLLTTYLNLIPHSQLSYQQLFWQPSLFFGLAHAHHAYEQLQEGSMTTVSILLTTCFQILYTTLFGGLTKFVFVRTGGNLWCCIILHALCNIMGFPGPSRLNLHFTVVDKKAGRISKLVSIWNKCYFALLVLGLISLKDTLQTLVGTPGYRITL
Phospholipase D1, sequence (Q13393 whole entry, the tested form may be a part): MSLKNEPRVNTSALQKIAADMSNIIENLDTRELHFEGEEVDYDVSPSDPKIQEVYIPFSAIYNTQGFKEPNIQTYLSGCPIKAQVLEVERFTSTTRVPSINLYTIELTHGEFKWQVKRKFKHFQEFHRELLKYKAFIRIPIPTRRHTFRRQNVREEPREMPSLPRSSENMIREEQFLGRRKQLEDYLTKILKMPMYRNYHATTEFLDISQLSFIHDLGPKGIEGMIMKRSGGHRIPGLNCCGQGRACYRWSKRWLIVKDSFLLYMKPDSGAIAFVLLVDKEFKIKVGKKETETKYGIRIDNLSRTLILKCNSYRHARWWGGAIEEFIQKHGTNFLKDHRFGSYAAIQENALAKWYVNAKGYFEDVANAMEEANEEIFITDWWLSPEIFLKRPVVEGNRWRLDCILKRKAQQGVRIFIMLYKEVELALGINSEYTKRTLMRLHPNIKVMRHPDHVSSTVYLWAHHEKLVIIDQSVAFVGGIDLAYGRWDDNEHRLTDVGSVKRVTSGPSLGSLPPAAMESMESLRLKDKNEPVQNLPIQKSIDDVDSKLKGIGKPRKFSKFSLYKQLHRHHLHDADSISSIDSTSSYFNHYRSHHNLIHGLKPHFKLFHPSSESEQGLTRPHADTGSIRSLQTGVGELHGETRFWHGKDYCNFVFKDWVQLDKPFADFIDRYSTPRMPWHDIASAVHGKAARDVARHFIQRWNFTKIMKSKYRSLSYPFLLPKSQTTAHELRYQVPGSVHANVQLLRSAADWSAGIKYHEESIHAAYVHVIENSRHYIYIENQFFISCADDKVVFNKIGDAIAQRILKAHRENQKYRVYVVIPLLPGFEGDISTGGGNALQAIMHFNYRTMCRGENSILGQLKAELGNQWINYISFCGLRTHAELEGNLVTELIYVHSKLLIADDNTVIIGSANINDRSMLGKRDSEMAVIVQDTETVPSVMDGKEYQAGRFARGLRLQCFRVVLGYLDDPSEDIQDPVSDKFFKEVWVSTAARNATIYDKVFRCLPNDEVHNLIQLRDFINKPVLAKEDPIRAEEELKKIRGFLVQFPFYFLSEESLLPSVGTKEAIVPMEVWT
Phospholipase D2, sequence (O14939 whole entry): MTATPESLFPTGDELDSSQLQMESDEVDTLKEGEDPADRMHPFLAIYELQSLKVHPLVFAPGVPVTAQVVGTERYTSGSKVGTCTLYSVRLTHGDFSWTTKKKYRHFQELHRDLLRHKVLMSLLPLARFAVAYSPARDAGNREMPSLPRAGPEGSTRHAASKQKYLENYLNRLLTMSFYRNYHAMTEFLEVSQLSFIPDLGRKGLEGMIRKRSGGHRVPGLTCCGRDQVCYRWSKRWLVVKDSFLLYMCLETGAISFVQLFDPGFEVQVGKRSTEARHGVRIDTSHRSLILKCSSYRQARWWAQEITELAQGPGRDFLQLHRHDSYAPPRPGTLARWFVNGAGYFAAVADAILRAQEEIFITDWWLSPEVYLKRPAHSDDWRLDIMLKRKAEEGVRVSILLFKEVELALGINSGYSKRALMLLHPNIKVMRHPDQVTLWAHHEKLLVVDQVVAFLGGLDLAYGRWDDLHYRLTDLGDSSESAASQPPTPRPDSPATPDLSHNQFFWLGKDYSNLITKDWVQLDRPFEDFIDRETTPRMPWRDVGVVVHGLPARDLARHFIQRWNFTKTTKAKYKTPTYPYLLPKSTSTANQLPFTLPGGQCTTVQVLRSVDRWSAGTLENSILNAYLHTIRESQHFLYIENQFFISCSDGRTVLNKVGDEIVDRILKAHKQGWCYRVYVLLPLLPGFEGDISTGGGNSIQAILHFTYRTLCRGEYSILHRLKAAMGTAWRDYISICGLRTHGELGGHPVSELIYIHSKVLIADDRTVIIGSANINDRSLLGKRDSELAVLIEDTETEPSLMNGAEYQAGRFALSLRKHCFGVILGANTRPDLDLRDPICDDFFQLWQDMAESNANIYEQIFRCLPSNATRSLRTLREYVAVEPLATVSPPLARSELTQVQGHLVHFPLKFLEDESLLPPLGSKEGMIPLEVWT
CAAX prenyl protease 2 (Homo sapiens, UniProt Q9Y256), sequence (Q9Y256 whole entry): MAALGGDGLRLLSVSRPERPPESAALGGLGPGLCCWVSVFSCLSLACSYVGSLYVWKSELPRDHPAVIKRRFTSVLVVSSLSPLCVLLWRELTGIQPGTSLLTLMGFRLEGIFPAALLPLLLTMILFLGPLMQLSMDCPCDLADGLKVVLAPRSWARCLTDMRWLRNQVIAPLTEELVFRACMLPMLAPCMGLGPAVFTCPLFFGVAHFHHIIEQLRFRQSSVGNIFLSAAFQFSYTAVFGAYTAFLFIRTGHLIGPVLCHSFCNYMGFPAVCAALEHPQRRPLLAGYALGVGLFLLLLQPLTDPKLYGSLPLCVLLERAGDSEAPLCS

O=C(NCCN1CCC2(CC1)C(=O)Oc1ccccc12)c1cnc2ccccc2c1
IC50 [1]: 20 µM (active) | IC50 [2]: 20 µM (inactive)

CC(=O)N1CCN(c2ccc(NC(=O)c3ccc([N+](=O)[O-])o3)cc2Cl)CC1
IC50 [3]: 49.8 µM (inactive) | IC50 [4]: 27.3 µM (inactive) | EC50 [5]: 9.29 µM (active) | AC50 [6]: 5.83 µM (active) | AC50 [7]: 48.1 µM (active) | EC50 [8]: 8.31 µM (active) | AC50 [9]: 1.08 µM (active) | IC50 [10]: 55.3 µM (inactive) | EC50 [11]: 11.1 µM (active) | AC50 [12]: 11.2 µM (active) | IC50 [13]: 22 µM (inactive)

O=C(c1cc(-c2ccccc2)nc2ccccc12)N1CCN(c2ccccn2)CC1
AC50 [14]: 4.89 µM (active) | AC50 [15]: 17 µM (active)

COC(=O)c1ccc(/C=C(\C#N)c2ccccn2)cc1
AC50 [16]: 103 µM (active) | AC50 [17]: 2.61 µM (active)

O=Cc1cc2ccccc2nc1SCc1ccc(Cl)c(Cl)c1
AC50 [18]: 2.82 µM (active) | EC50 [19]: 0.777 µM (active) | EC50 [8]: > 120 µM (not active) | EC50 [20]: < 0.104 µM (active) | EC50 [21]: 0.567 µM (active) | IC50 [22]: > 80 µM (inactive) | EC50 [11]: > 120 µM (not active) | EC50 [23]: 0.396 µM (inconclusive) | EC50 [24]: 0.279 µM (active)

O=C(NCCc1ccccc1)c1ccc2c(c1)OCCCO2
AC50 [25]: 58.7 µM (active) | AC50 [26]: 2 µM (active) | IC50 [27]: > 39.8 µM (not active) | IC50 [28]: 0.64 µM (active) | AC50 [29]: 40.3 µM (active) | AC50 [6]: 2.38 µM (active) | AC50 [7]: > 70 µM (inactive) | AC50 [9]: 1.05 µM (active) | AC50 [30]: 3.96 µM (active) | EC50 [31]: < 0.16 µM (active) | AC50 [32]: 14.2 µM (active) | AC50 [33]: 2.29 µM (active) | IC50 [34]: > 80 µM (inactive) | AC50 [35]: 84.9 µM (active) | AC50 [36]: 34.1 µM (active)
